Results as given in patent US8293769B2, “CSF-1R inhibitors, compositions, and methods of use” (Novartis AG, priority 2008, dated 2012).

Tests used:
[1] = target: T1, cytoplasmic domain of the human CSF-1R (Homo sapiens, UniProt P07333); experiment: In vitro kinase assay for CSF-1R (AlphaScreen); assay type: biochemical; settings: tested at about 1 μM; read-out: CSF1RK 1 percent inhibition
T1 construct: Recombinant protein corresponding to the cytoplasmic domain of the human CSF-1R; purchased Invitrogen Corporation, Carlsbad, Calif; PV3249
T1 sequence (P07333 539-972 limits assumed): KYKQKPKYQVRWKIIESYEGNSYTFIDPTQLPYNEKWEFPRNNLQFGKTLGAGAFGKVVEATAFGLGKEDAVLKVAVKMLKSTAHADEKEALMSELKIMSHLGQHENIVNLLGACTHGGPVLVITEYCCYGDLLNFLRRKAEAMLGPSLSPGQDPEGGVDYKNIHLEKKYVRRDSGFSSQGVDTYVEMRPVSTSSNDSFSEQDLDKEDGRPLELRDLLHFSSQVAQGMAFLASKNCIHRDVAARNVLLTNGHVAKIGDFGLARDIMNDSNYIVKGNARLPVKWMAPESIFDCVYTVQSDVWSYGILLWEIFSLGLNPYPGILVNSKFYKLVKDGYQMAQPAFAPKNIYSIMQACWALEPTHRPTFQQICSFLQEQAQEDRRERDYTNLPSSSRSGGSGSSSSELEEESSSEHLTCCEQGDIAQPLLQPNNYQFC
Summary of the method: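 Recombinant CSF-1R cytoplasmic domain (4 nM) phosphorylated biotinylated peptide (0.05 μM) at 1.0 μM ATP in HEPES with Mg2+/Mn2+, 2 h at room temperature, compounds from 25 μM in 3-fold steps. AlphaScreen anti-phosphotyrosine PT66 detection; IC50 by non-linear regression.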

cKIT = target: T2, cKIT (Homo sapiens, UniProt P10721); experiment: cKIT kinase in vitro biochemical assay (alphascreen); settings: tested at about 1 μM; read-out: CKIT percent inhibition
T2 construct: The kinase domain of cKIT was assayed in 50 mM Hepes; purchased Upstate 14-559
T2 sequence (P10721 589-937 limits assumed): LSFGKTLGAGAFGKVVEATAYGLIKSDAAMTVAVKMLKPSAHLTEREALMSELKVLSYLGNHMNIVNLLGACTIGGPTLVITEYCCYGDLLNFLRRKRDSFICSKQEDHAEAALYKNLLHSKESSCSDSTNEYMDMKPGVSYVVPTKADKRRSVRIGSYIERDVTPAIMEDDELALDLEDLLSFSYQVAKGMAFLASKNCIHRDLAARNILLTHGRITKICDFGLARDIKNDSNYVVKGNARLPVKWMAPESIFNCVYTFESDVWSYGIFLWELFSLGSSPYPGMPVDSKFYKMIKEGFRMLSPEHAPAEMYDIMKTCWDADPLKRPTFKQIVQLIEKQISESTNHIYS

PDGFRb = target: T3, PDGFRb (Homo sapiens, UniProt P09619); experiment: PDGFRb kinase in vitro biochemical assay (alphascreen); settings: tested at about 1 μM; read-out: PDGF RK BETA percent inhibition
T3 construct: The kinase domain of PDGFRβ was assayed in 50 mM Hepes; purchased Invitrogen P3082
T3 sequence (P09619 600-962 limits assumed): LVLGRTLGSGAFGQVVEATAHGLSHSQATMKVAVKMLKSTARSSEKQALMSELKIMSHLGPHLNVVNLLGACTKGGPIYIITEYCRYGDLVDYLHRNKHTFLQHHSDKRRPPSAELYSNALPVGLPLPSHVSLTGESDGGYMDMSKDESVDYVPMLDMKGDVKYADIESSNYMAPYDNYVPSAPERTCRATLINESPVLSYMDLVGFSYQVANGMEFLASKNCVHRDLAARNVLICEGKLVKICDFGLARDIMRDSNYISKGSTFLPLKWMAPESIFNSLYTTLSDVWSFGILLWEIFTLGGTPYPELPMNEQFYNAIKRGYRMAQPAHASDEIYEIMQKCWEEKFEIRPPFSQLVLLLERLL

[2] = system: MNFS60 (murine AML cells); experiment: Cell viability assay in MCSF dependent MNFS60 cells (Cell Titer Glo); assay type: cell-based; settings: Mus musculus; tested at about 1 μM; MCSF 10 ng/mL, 72 hrs; read-out: CPEC50 MNFS60MCSF percent inhibition
Summary of the method: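 MNFS60 cells, 5,000 per well in RPMI-1640/10% FBS, grown with 10 ng/mL MCSF and 3-fold compound dilutions for 72 h at 37 °C. Viable cells measured by CellTiter-Glo luminescence, triplicates; EC50 fitted, with MCSF-free wells as 100% inhibition.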

[3] = target: T4, full-length human CSF-1R receptor (Homo sapiens, UniProt P07333); experiment: In vitro inhibition of CSF-1R receptor tyrosine phosphorylation in transfected HEK293H cells; assay type: cell-based; settings: HEK293-H, tested at about 1 μM, 50 ng/mL MCSF, read-out: PCSF1R percent inhibition
T4 construct: transfected with the full-length human CSF-1R receptor cloned in house; expressed in transfected cells; host or cells: HEK293H (Invitrogen Cat. #11631017)
T4 sequence (P07333 20-972): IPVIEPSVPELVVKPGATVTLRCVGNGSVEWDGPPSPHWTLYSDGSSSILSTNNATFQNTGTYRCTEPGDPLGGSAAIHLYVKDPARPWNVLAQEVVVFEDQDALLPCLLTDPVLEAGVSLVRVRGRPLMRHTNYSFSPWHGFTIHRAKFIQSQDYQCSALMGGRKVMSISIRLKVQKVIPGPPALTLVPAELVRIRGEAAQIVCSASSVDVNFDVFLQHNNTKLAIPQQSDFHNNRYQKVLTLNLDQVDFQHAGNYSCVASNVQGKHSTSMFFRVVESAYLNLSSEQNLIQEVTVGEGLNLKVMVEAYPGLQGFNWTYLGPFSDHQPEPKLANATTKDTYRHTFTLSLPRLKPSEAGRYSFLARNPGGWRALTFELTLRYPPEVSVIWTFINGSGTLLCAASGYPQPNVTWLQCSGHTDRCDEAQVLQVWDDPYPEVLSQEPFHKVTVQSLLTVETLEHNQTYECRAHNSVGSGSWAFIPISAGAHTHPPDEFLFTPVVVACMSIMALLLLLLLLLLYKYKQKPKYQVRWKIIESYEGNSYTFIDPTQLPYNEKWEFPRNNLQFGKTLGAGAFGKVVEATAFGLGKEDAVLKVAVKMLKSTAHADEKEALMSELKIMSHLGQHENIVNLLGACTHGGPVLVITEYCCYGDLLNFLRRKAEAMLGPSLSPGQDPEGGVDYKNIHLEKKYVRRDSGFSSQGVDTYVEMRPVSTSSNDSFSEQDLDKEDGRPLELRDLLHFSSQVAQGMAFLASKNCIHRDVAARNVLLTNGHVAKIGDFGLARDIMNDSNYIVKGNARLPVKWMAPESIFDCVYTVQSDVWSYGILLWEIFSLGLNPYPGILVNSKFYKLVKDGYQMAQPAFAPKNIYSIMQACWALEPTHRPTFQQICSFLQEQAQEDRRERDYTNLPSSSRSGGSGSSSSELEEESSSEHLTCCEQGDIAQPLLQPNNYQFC
Method: To test the inhibition of CSF-1R receptor tyrosine phosphorylation, HEK293H purchased from Invitrogen Cat. #11631017 cells transfected with the full-length human CSF-1R receptor cloned in house into mammalian episomal transfection vector were incubated for 1 h with serial dilutions of compounds starting at 10 μM with 3 fold dilutions and then stimulated for 8 min with 50 ng/mL MCSF. After the supernatant was removed, the cells were lysed on ice with lysis buffer (150 mM NaCl, 20 mM Tris, pH 7.5, 1 mM EDTA, 1 mM EGTA, 1% Triton X-100 and NaF, protease and phosphatase inhibitors) and then shaken for 15-20 min at 4° C. The lysate was then transferred to total CSF-1R antibody coated 96-well plates that had already been blocked with 3% Blocker A from Mesoscale discovery (MSD) for 2 hours and washed afterwards. Lysates were incubated overnight at 4° C. and the plates were then washed 4× with MSD Tris Wash Buffer. The SULFO-TAG anti-pTyr antibody from MSD was diluted to 20 nM final in 1% Blocker A (MSD) solution and added to the washed plates and incubated for 1.5-2 h before addition of read buffer (MSD). The plates were read on the Sector 6000 instrument (MSD). Raw data was imported in Abase and EC50s calculated with XL-fit data analysis software.

inhibition at 1 µM [1]	inhibition at 1 µM (cKIT)	inhibition at 1 µM (PDGFRb)	inhibition at 1 µM [3]	Structure (SMILES)	inhibition at 1 µM [2]
100%	24%	19%	91%	Nc1ccc(-c2cncc(Oc3ccc4nc(N[C@@H]5CCCC[C@H]5O)sc4c3)n2)cn1 [Compound 97, (1R,2R)-2-(6-(6-(6-aminopyridin-3-yl)pyrazin-2-yloxy)benzo[d]thiazol-2-ylamino)cyclohexanol]	62%
100%	48%	9%	93%	CC(C)(C)OC(=O)N1CC=C(c2cncc(Oc3ccc4nc(N[C@@H]5CCCC[C@H]5O)sc4c3)c2)CC1 [Compound 79]	93%
100%	15%	12%	98%	CN1CCN(c2ccc(-c3cncc(Oc4ccc5nc(N[C@@H]6CCCC[C@H]6O)sc5c4)n3)cn2)CC1 [Compound 98, (1R,2R)-2-(6-(6-(6-(4-methylpiperazin-1-yl)pyridin-3-yl)pyrazin-2-yloxy)benzo[d]thiazol-2-ylamino)cyclohexanol]	100%
100%	13%	9%	95%	CCCn1cc(-c2cncc(Oc3ccc4nc(N[C@@H]5CCCC[C@H]5O)sc4c3)n2)cn1 [Compound 94, (1R,2R)-2-(6-(6-(1-propyl-1H-pyrazol-4-yl)pyrazin-2-yloxy)benzo[d]thiazol-2-ylamino)cyclohexanol]	80%
100%	33%	21%	93%	Cn1cncc1-c1cncc(Oc2ccc3nc(N[C@@H]4CCCC[C@H]4O)sc3c2)c1 [Compound 68, (1R,2R)-2-(6-(5-(1-methyl-1H-imidazol-5-yl)pyridin-3-yloxy)benzo[d]thiazol-2-ylamino) cyclohexanol]	85%
100%	40%	9%	96%	Cn1ccnc1-c1cncc(Oc2ccc3nc(N[C@@H]4CCCC[C@H]4O)sc3c2)c1 [Compound 66, (1R,2R)-2-(6-(5-(1-methyl-1H-imidazol-2-yl)pyridin-3-yloxy)benzo[d]thiazol-2-ylamino) cyclohexanol]	90%

The next lines start with the compound.

Structure (SMILES)	inhibition at 1 µM [1]	inhibition at 1 µM (cKIT)	inhibition at 1 µM (PDGFRb)	inhibition at 1 µM [3]	inhibition at 1 µM [2]
O[C@@H]1CCCC[C@H]1Nc1nc2ccc(Oc3ccnc(-c4cccnc4)n3)cc2s1 [Compound 27, (1R,2R)-2-(6-(2-(pyridin-3-yl)pyrimidin-4-yloxy)benzo [d]thiazol-2-ylamino) cyclohexanol]	100%	20%	8%	78%	54%
Nc1ncc(-c2cncc(Oc3ccc4nc(N[C@@H]5CCCC[C@H]5O)sc4c3)c2)cn1 [Compound 63, (1R,2R)-2-(6-(5-(2-aminopyrimidin-5-yl)pyridin-3-yloxy)benzo[d]thiazol-2-ylamino) cyclohexanol]	100%	35%	14%	80%	61%
Cn1nccc1-c1cncc(Oc2ccc3nc(N[C@@H]4CCCC[C@H]4O)sc3c2)c1 [Compound 56, (1R,2R)-2-(6-(5-(1-methyl-1H-pyrazol-5-yl)pyridin-3-yloxy)benzo[d]thiazol-2-ylamino)cyclohexanol]	100%	43%	10%	96%	93%
O[C@@H]1CCCC[C@H]1Nc1nc2ccc(Oc3cncc(-c4ccc(F)cc4)c3)cc2s1 [Compound 64, (1R,2R)-2-(6-(5-(4-fluorophenyl)pyridin-3-yloxy)benzo [d]thiazol-2-ylamino) cyclohexanol]	100%	54%	8%	95%	100%
O[C@@H]1CCCC[C@H]1Nc1nc2ccc(Oc3ccnc(-c4ccncc4)n3)cc2s1 [Compound 28, (1R,2R)-2-(6-(2-(pyridin-4-yl)pyrimidin-4-yloxy)benzo [d]thiazol-2-ylamino) cyclohexanol]	100%	18%	25%	88%	67%
C[C@H](Nc1nc2ccc(Oc3ccnc(-c4ccncc4)n3)cc2s1)C1CCCCC1 [Compound 32, (S)-N-(1-cyclohexylethyl)-6-(2-(pyridin-4-yl)pyrimidin-4-yloxy)benzo[d] thiazol-2-amine]	100%	30%	14%	70%	58%
C[C@H](Nc1nc2ccc(Oc3ccnc(-c4cccnc4)n3)cc2s1)C1CCCCC1 [Compound 31, (S)-N-(1-cyclohexylethyl)-6-(2-(pyridin-3-yl)pyrimidin-4-yloxy)benzo[d] thiazol-2-amine]	100%	29%	6%	59%	58%
